# Laboratory results taken from US20240417398A1, “TETRAHYDRONAPTHYRIDINE AND RELATED ANALOGS FOR INHIBITING YAP/TAZ-TEAD” (SpringWorks Therapeutics, Inc., priority 2023, published 2024).
# Tested on: YAP/TAZ-TEAD transcription
# Experiment: Reporter gene assay for measuring the inhibition of YAP/TAZ-TEAD transcription (TEAD-responsive element luciferase reporter, Hek293T cells)
# Format: cell-based
# Details: Hek293T cells transfected with TEAD-responsive element luciferase reporter, 24 hours incubation
# Experimental: Hek293T cells were cultured in DMEM supplemented with 10% fetal bovine serum, Sodium pyruvate, Sodium bicarbonate, L-glutamine. The cells were harvested and transiently transfected with TEAD-responsive element luciferase reporter. Transfected cells were plated in 384-well plate containing pre-diluted compounds. After 24 hours incubation at 37° C./5% CO2, assay plates were cooled to room temperature and levelled to an equal volume per well, prior to the addition of 25 uL luciferase substrate SteadyLite (Perkin Elmer)/well. The plate was shaken for 10 min at 600 rpm, centrifuged for 1 min at 500 rpm and measured with an Envision reader (PerkinElmer). The amount of relative light units produced by the TEAD reporter was used to calculate the percentage of inhibition.
# The percent of reporter inhibition was calculated in the presence of a positive control inhibitor (100% inhibition) versus a condition with the presence of the vehicle basal activity of the reporter (0% inhibition). The ability of a test compound to inhibit this activity was determined as: Percentage inhibition=[1-((RLU determined in the presence of vehicle−RLU determined for sample with test compound present) divided by (RLU determined in the presence of vehicle−RLU determined for sample with positive control inhibitor))]*100.
# The activities of example compounds tested are depicted in Table 3. The activity ranges A, B and C refer to IC50 values in the reporter gene assay as follows: “A”: IC50<1 μM; “B”: 1 μM≤IC50 10 μM and “C”: IC50>10 μM; NT=not tested.
row,IC50 [nM],Structure (SMILES)
1,< 1000,"C=CC(=O)NCC1Cc2ncccc2N(c2ccc(C(F)(F)F)cc2)C1 (single isomer, unassigned) [Cpd. No. 10-En2, (R)- or (S)-N-((1-(4-(trifluoromethyl)phenyl)-1,2,3,4-tetrahydro-1,5-naphthyridin-3-yl)methyl)acrylamide]"
2,1000 to 10000,"[2H]C([2H])([2H])C(=O)NCC1Cc2ncccc2N(c2ccc(C(F)(F)F)cc2)C1 (single isomer, unassigned) [Cpd. No. 34-En1, (R)- or (S)-N-((1-(4-(trifluoromethyl)phenyl)-1,2,3,4-tetrahydro-1,5-naphthyridin-3-yl)methyl)acetamide-2,2,2-d3]"
3,< 1000,"O=C(CC(F)(F)F)NCC1Cc2ncccc2N(c2ccc(C(F)(F)F)cc2)C1 (single isomer, unassigned) [Cpd. No. 38-En2, (R)- or (S)-3,3,3-trifluoro-N-((1-(4-(trifluoromethyl)phenyl)-1,2,3,4-tetrahydro-1,5-naphthyridin-3-yl)methyl)propanamide]"
4,> 10000,"CC(=O)NCC1(C)Cc2ncccc2N(c2ccc(C(F)(F)F)cc2)C1 (single isomer, unassigned) [Cpd. No. 47-En2, (R)- or (S)-N-((3-methyl-1-(4-(trifluoromethyl)phenyl)-1,2,3,4-tetrahydro-1,5-naphthyridin-3-yl)methyl)acetamide]"

# Same assay, conditions: Homo sapiens, HEK-293T, 24 h, Hek293T cells transfected with TEAD-responsive element luciferase reporter, 24 hours incubation
row,IC50 [nM],Structure (SMILES)
1,1000 to 10000,"CC(=O)NCC1Cc2ncccc2N(c2ccc(C(F)(F)F)cc2)C1 (single isomer, unassigned) [Cpd. No. 12-En1, (R)- or (S)-N-((1-(4-(trifluoromethyl)phenyl)-1,2,3,4-tetrahydro-1,5-naphthyridin-3-yl)methyl)acetamide]"
2,1000 to 10000,"COC(=O)NCC1Cc2ncccc2N(c2ccc(C(F)(F)F)cc2)C1 (single isomer, unassigned) [Cpd. No. 15-En2, (R)- or (S)-methyl ((1-(4-(trifluoromethyl)phenyl)-1,2,3,4-tetrahydro-1,5-naphthyridin-3-yl)methyl)carbamate]"
3,1000 to 10000,"CCC(=O)NCC1Cc2ncccc2N(c2ccc(C(F)(F)F)cc2)C1 (single isomer, unassigned) [Cpd. No. 17-En1, (R)- or (S)-N-((1-(4-(trifluoromethyl)phenyl)-1,2,3,4-tetrahydro-1,5-naphthyridin-3-yl)methyl)propionamide]"
4,1000 to 10000,"COc1ccc2c(n1)CC(CNC(C)=O)CN2c1ccc(C(F)(F)F)cc1 (single isomer, unassigned) [Cpd. No. 22-En1, (R)- or (S)-N-((6-methoxy-1-(4-(trifluoromethyl)phenyl)-1,2,3,4-tetrahydro-1,5-naphthyridin-3-yl)methyl)acetamide]"
5,< 1000,"CC(=O)NCC1Cc2nc(C)ccc2N(c2ccc(C(F)(F)F)cc2)C1 (single isomer, unassigned) [Cpd. No. 26-En1, (R)- or (S)-N-((6-methyl-1-(4-(trifluoromethyl)phenyl)-1,2,3,4-tetrahydro-1,5-naphthyridin-3-yl)methyl)acetamide]"
6,1000 to 10000,"O=C(CC(F)(F)F)NCC1Cc2ncccc2N(c2ccc(C(F)(F)F)cc2)C1 (single isomer, unassigned) [Cpd. No. 38-En1, (R)- or (S)-3,3,3-trifluoro-N-((1-(4-(trifluoromethyl)phenyl)-1,2,3,4-tetrahydro-1,5-naphthyridin-3-yl)methyl)propanamide]"
7,< 1000,"CCC(=O)NCC1Cc2c(Oc3cccnc3)cccc2N(c2ccc(C(F)(F)F)cc2)C1 (stereo not drawn) [Cpd. No. 1, N-((5-(pyridin-3-yloxy)-1-(4-(trifluoromethyl)phenyl)-1,2,3,4-tetrahydroquinolin-3-yl)methyl)propionamide]"
8,1000 to 10000,"CS(=O)(=O)NCC1Cc2c(Oc3cccnc3)cccc2N(c2ccc(C(F)(F)F)cc2)C1 (stereo not drawn) [Cpd. No. 2, N-((5-(pyridin-3-yloxy)-1-(4-(trifluoromethyl)phenyl)-1,2,3,4-tetrahydroquinolin-3-yl)methyl)methanesulfonamide]"
